# Results from article PMC10987949, “Inhibition of HIV-1 release by ADAM metalloproteinase inhibitors” (Frontiers in Microbiology, 2024).
# Columns and labels:
# CD62L shedding [1] = test: Soluble CD62L ELISA, unstimulated PBMC; type: cell-based, human; conditions: Homo sapiens, PBMC; 10 μM compound; non-stimulated cells; ELISA; read-out: Shedding inhibition Non-stim.
# Experimental: PBMC from de-identified healthy donors were obtained with informed consent from the Department of Transfusion Medicine, National Institutes of Health under Biological reagent Registry RD-14-IX-12 approved by NIH biological safety board. CD8-depleted PBMCs, either stimulated or non-stimulated with 10 μg/mL phytohaemagglutinin (PHA) or anti-CD3 antibody (with or without conjugated beads), were plated at 2×10^6 cells/ml in 48 well plates in RPMI 1640 + 10%FBS (R10) to a final volume of 1 mL in each well. IL-2 was added at a final concentration of 20 U/mL. CD3 antibody okt3 was used at ~0.2 μg/mL final concentration. […] Supernatants were collected and assessed using either the CD62L or TNF-α Duo Set ELISA kit according to manufacturer's instructions (R&D Systems, Inc.). The viability of cells treated with compounds was assessed by acridine orange / propidiom iodide (AO/PI Logosbio catalog F23001) staining using Luna-FL cell counter following the manufacture's instruction.^2 […] Supplemental Figure 1. CD62L shedding from unstimulated PBMC. A) Soluble CD62L in the supernatant of unstimulated PBMC was measured By ELISA (R&D systems, Inc) after 24 hour treatment in the presence of 10 μM of […]), aminopeptidase (AP) protease inhibitors, respectively, or their untreated controls. Statistics were calculated using unpaired parametric student t-test between individual treatment and DMSO control. […] B) Viability of PBMC treated with 10-500 μM of MMP inhibitors for 24hours. […] Untreated DMSO AEBSF 3,4-Dichloroisocouman Granzyme B Inhibitor II Granzyme B Inhibitor IV Aprotinin […] 3 4 CD62L shedding from unstimulated PBMC Soluble CD62L (ng/ml) Inhibitor Class […] GI254023X 10 GI254023X 100 […] GI254023X 1000 GW280264X 10 GW280264X 100 […] GW280264X 1000 Marimastat 10 Marimastat 100 Marimastat 250 […]
# [2] = target: T1, recombinant HIV-1 protease (Human immunodeficiency virus type 1 group M subtype B, UniProt P04585); test: HIV-1 protease fluorogenic substrate cleavage; type: biochemical; conditions: 100nM saquinavir or nelfinavir; MMP inhibitors up to 10uM
# T1 construct: recombinant HIV-1 protease; purchased Sigma-Aldrich SRP2151
# Experimental: HIV-1 protease enzymatic activity was assayed in black 96-well plates at room temperature using a Synergy_h1 fluorescent plate reader with 340 nm excitation and 490 nm emission wavelengths (BioTek). Each enzymatic reaction consisted of a mixture of 100 ng of recombinant HIV-1 protease (Sigma-Aldrich catalog SRP2151), 5 μM concentration of a fluorogenic substrate Arg-Glu(EDANS)-[…]DABCYL)-Arg (Sigma-aldrich catalog H6660), and various concentrations of inhibitor compounds in 100 μL of assay buffer (0.15 M sodium chloride, 1.0 mM EDTA, 1.0 mM DTT, 0.1 M sodium acetate, pH 5.0). The fluorescence of the cleavage reaction was continuously read at every 30 s for a total of 40 min.
# CD62L shedding [3] = test: Soluble CD62L ELISA, anti-CD3/PHA stimulated PBMC or CD4 T cells; type: cell-based, human; conditions: ELISA
# Experimental: PBMC from de-identified healthy donors were obtained with informed consent from the Department of Transfusion Medicine, National Institutes of Health under Biological reagent Registry RD-14-IX-12 approved by NIH biological safety board. […] IL-2 was added at a final concentration of 20 U/mL. CD3 antibody okt3 was used at ~0.2 μg/mL final concentration. […] Supernatants were collected and assessed using either the CD62L or TNF-α Duo Set ELISA kit according to manufacturer’s instructions (R&D Systems, Inc.). The viability of cells treated with compounds was assessed by acridine orange / propidiom iodide (AO/PI Logosbio catalog F23001) staining using Luna-FL cell counter following the manufacture’s instruction.^2
# HIV-1 = test: Ex vivo HIV-1 release from CD4 T cells of HIV-1 infected individuals; type: cell-based; conditions: 50 μM; CD4 T cells from six HIV-1 infected individuals; day 2 and 4
# Experimental: PBMCs were collected from the study subjects in accordance with a clinical protocol approved by the Institutional Review Board of the National Institute of Allergy and Infectious Diseases, National Institutes of Health under protocol #02-I-0202. CD4^+ T cells were isolated from the PBMCs using a human CD4 T cell separation system (StemCell Technologies, Catalog 19052) and were cultured with medium alone or with plate-bound anti-CD3 and soluble anti-CD28 antibody in the absence or presence of 50 μM of indicated compounds for 48 h. The copy number of cell-free viron-associated HIV RNA in the culture supernatants was quantified using the Cobas Ampliprep/Cobas Taqman HIV-1 Test, Version 2.0 (Roche Diagnostics) with droplet digital PCR (ddPCR, BIO-RAD) on day 2 and 4 of stimulation.
structure (smiles),measurement,setting,value
CNC(=O)[C@H](Cc1c[nH]c2ccccc12)NC(=O)[C@@H](CC(=O)NO)CC(C)C [GM6001],inhibition at 10 µM,CD62L shedding [1],20 to 50%
same,effect on HIV protease cleavage of fluorogenic substrate,[2],"none of the MMP inhibitors, including BB-94, prinomastat, GM6001 and DMDP, inhibited the activity of HIV protease"
same,inhibition at 10 µM,"CD62L shedding [3]; Homo sapiens, 10 μM compound, stimulated cells",20 to 50%
same,effect on CD62L shedding / soluble CD62L,CD62L shedding [3]; stimulated PBMC or CD4 T cells,suppressed CD62L shedding
same,effect on viral release (virion-associated HIV RNA),HIV-1,inhibited viral release in a portion of the samples
